Consider 10 molecules from DBAASP.

Among the test systems are Aspergillus fumigatus; Candida albicans; Escherichia coli KF111; Escherichia coli KF130; Escherichia coli UB1005; Bacillus megaterium Bm11; Escherichia coli ML-35.
What all share (experiment): ≥ marks a high value that may be exact or a test limit, other limits are often not marked, values filed in µg/mL are converted to µM
Test [1] relates to Xanthomonas campestris pv. Vesicatoria 2133-2.
The test system of test [2] is Erwinia amylovora PMV 6076.
Test [3] has as its system Pseudomonas syringae pv. syringae EPS 94.
Test [4] has as its system Pseudomonas aeruginosa H744.
For test [5], the system named is Pseudomonas aeruginosa K799.
The test system of test [6] is Pseudomonas aeruginosa H374.
The test system of test [7] is Salmonella enterica subsp. enterica serovar Typhimurium ATCC 14028s.
Test [8] deals with Staphylococcus epidermidis.
Test [9] deals with Pseudomonas aeruginosa ATCC 27853.
Test [10] deals with Klebsiella pneumoniae ATCC 10031.
Test [11] relates to Salmonella enterica subsp. enterica serovar Typhimurium ATCC 14028.
For test [12], the system named is Staphylococcus aureus ATCC 6538.
Test [13] has as its system Pseudomonas aeruginosa ATCC 13388.
In test [14] the test system is Escherichia coli ATCC 11219.
Test [15] relates to Pseudomonas aeruginosa ATCC 15442.
Test [16] relates to Bacillus subtilis CCT 2471.
Test [17] has as its system Escherichia coli CCT 1371.
The test system of test [18] is Staphylococcus aureus ATCC 25923.
Test [19] deals with Staphylococcus saprophyticus.
In test [20] the test system is Escherichia coli ATCC 25922.

The MIC is the lowest concentration that inhibits growth of the organism. Low values mean greater potency, high ones weaker potency.

Converted amounts (≈) assume the structure as drawn.

In the case of `CC(C)C[C@H](NC(=O)[C@H](Cc1cnc[nH]1)NC(=O)[C@H](CCC(=O)O)NC(=O)[C@H](Cc1c[nH]c2ccccc12)NC(=O)[C@H](CC(=O)O)NC(=O)[C@H](CCCCN)NC(=O)[C@H](CC(C)C)NC(=O)[C@H](Cc1cnc[nH]1)NC(=O)[C@H](CCC(=O)O)NC(=O)[C@H](Cc1c[nH]c2ccccc12)NC(=O)[C@H](CC(=O)O)NC(=O)[C@H](CCCCN)NC(=O)[C@H](CC(C)C)NC(=O)[C@H](Cc1cnc[nH]1)NC(=O)[C@H](CCC(=O)O)NC(=O)[C@H](Cc1c[nH]c2ccccc12)NC(=O)[C@H](CC(=O)O)NC(=O)[C@@H](N)CCCCN)C(=O)O` [KDWEHLKDWEHLKDWEHL], the MIC in test [1], in test [2] and in test [3] was no less than 100 µM each time.
For `CC(C)C[C@H](NC(=O)[C@H](Cc1ccccc1)NC(=O)[C@@H]1CCCN1C(=O)[C@H](Cc1c[nH]c2ccccc12)NC(=O)[C@H](CS)NC(=O)[C@@H](NC(=O)[C@H](Cc1c[nH]c2ccccc12)NC(=O)[C@@H]1CCCN1C(=O)[C@H](Cc1ccccc1)NC(=O)[C@H](CCCN=C(N)N)NC(=O)[C@H](CCCN=C(N)N)NC(=O)[C@@H](N)CCCN=C(N)N)C(C)C)C(=O)N[C@@H](CCCN=C(N)N)C(=O)N[C@@H](CCCN=C(N)N)C(=O)N[C@@H](CCCN=C(N)N)C(=O)O` [RRRFPWVCWPFLRRR], the MIC is no less than 117 µM against Aspergillus fumigatus and 469 µM (≈ 1000 µg/mL) with Candida albicans.
As to `CC[C@H](C)[C@H](NC(=O)[C@@H]1CCCN1C(=O)[C@H](CCCCN)NC(=O)[C@H](CC(C)C)NC(=O)[C@H](C)NC(=O)[C@@H](NC(=O)[C@H](Cc1ccc(O)cc1)NC(=O)[C@H](Cc1ccccc1)NC(=O)[C@@H](NC(=O)[C@@H](NC(=O)[C@H](CCCCN)NC(=O)[C@@H](NC(=O)[C@@H]1CCCN1C(=O)[C@H](CO)NC(=O)[C@H](CCCCN)NC(=O)[C@H](Cc1ccccc1)NC(=O)[C@@H](NC(=O)[C@H](CCCCN)NC(=O)[C@H](CC(C)C)NC(=O)[C@H](Cc1ccccc1)NC(=O)[C@H](CO)NC(=O)[C@H](CCCCN)NC(=O)[C@H](Cc1c[nH]c2ccccc12)NC(=O)[C@@H](N)CCCCN)[C@@H](C)O)C(C)C)[C@@H](C)O)C(C)C)[C@@H](C)O)C(=O)N[C@@H](CO)C(=O)N[C@@H](CO)C(=O)O` [KWKSFLKTFKSPVKTVFYTALKPISS], the MIC was found to be 1.32 µM (≈ 4 µg/mL) against Escherichia coli KF111; 1.32 µM (≈ 4 µg/mL) against Escherichia coli KF130; 10.6 µM (≈ 32 µg/mL) in test [4]; 10.6 µM (≈ 32 µg/mL) in test [5]; 10.6 µM (≈ 32 µg/mL) in [6]; 5.28 µM (≈ 16 µg/mL) in test [7]. In addition, the results for the MIC (in test [8]; in test [9]; against Escherichia coli UB1005) were 10.6 µM (≈ 32 µg/mL), 8 µM (≈ 24.3 µg/mL) and 0.659 µM (≈ 2 µg/mL), respectively.
For `CC[C@H](C)[C@H](NC(=O)CN)C(=O)N[C@@H](CCCCN)C(=O)N[C@@H](CCCCN)C(=O)N[C@H](C(=O)N[C@@H](CC(C)C)C(=O)N[C@@H](CCCCN)C(=O)N[C@@H](Cc1ccc(O)cc1)C(=O)NCC(=O)N[C@@H](CCCCN)C(=O)N[C@@H](CCCCN)C(=O)N[C@@H](CO)C(N)=O)[C@@H](C)CC` [GIKKILKYGKKS], the MIC was no less than 50 µM in test [10]; 20 µM (≈ 27.2 µg/mL) in test [11]; 5 µM (≈ 6.81 µg/mL) in test [12]; no less than 50 µM in [13]; 20 µM (≈ 27.2 µg/mL) in [14].
Regarding `CC[C@H](C)[C@H](N)C(=O)N[C@@H](CC(N)=O)C(=O)N[C@@H](CC(C)C)C(=O)N[C@@H](CC(C)C)C(=O)N[C@@H](CCCCN)C(=O)N[C@H](C(=O)N[C@@H](C)C(=O)N[C@@H](CCCCN)C(=O)NCC(=O)N[C@H](C(=O)N[C@H](C(=O)N[C@@H](CCCCN)C(=O)N[C@@H](CO)C(=O)N[C@@H](CC(C)C)C(=O)O)[C@@H](C)CC)[C@@H](C)CC)[C@@H](C)CC` [INLLKIAKGIIKSL], the MIC in test [12] was 65.6 µM (≈ 100 µg/mL); in test [15], no less than 65.6 µM; in [16], no less than 65.6 µM; in test [17], no less than 32.8 µM; in [8], no less than 32.8 µM; in test [18], 6.56 µM (≈ 10 µg/mL). For the same molecule, the results for the MIC (in test [19]; in the test with Candida albicans; in [20]) were 16.4 µM (≈ 25 µg/mL), greater than 65.6 µM and 16.4 µM (≈ 25 µg/mL), respectively.
As to `CC[C@H](C)[C@H](NC(=O)[C@H](CCCCN)NC(=O)[C@H](CCCCN)NC(=O)[C@H](Cc1ccccc1)NC(=O)[C@H](CC(C)C)NC(=O)[C@H](CCCCN)NC(=O)[C@@H](N)CCCCN)C(=O)N[C@@H](CC(C)C)C(=O)N[C@@H](CCCCN)C(=O)N[C@@H](Cc1ccc(O)cc1)C(=O)N[C@@H](CC(C)C)C(=O)O` [KKLFKKILKYL], the MIC in test [1] was found to be 14.1 µM (≈ 20.1 µg/mL); in test [2], 8.66 µM (≈ 12.3 µg/mL); in test [3], 8.66 µM (≈ 12.3 µg/mL).
`CC[C@H](C)[C@H](NC(=O)[C@@H]1CCCN1C(=O)[C@H](CCCCN)NC(=O)[C@H](CC(C)C)NC(=O)[C@H](C)NC(=O)[C@@H](NC(=O)[C@@H](NC(=O)[C@H](CC(C)C)NC(=O)[C@@H](NC(=O)[C@H](CCCCN)NC(=O)[C@H](CCCCN)NC(=O)[C@H](C)NC(=O)[C@H](C)NC(=O)[C@H](CO)NC(=O)[C@@H](NC(=O)[C@H](CC(C)C)NC(=O)[C@H](CCCCN)NC(=O)[C@H](CCCCN)NC(=O)[C@H](CC(C)C)NC(=O)[C@H](Cc1ccccc1)NC(=O)[C@H](CO)NC(=O)[C@H](CCCCN)NC(=O)[C@H](Cc1c[nH]c2ccccc12)NC(=O)[C@@H](N)CCCCN)[C@@H](C)O)C(C)C)[C@@H](C)O)[C@@H](C)O)C(=O)N[C@@H](CO)C(=O)N[C@@H](CO)C(=O)O` [KWKSFLKKLTSAAKKVLTTALKPISS]: the MIC against Escherichia coli KF111 is 0.348 µM (≈ 1 µg/mL); against Escherichia coli KF130, 0.348 µM (≈ 1 µg/mL); in test [4], 1.39 µM (≈ 4 µg/mL); in test [5], 2.78 µM (≈ 8 µg/mL); in test [6], 1.39 µM (≈ 4 µg/mL); in test [7], 1.39 µM (≈ 4 µg/mL). For the same molecule, the MIC in test [8] is 1.39 µM (≈ 4 µg/mL); in test [9], 4 µM (≈ 11.5 µg/mL); with Escherichia coli UB1005 it was 0.348 µM (≈ 1 µg/mL).
Regarding `CC[C@H](C)[C@H](NC(=O)CNC(=O)[C@@H](N)Cc1c[nH]c2ccccc12)C(=O)N[C@@H](CCCN=C(N)N)C(=O)N[C@@H](CC(=O)O)C(=O)N[C@H](C(=O)N[C@@H](CC(C)C)C(=O)N[C@@H](CCCCN)C(=O)N[C@@H](Cc1ccc(O)cc1)C(=O)NCC(=O)N[C@@H](CCCCN)C(=O)N1CCC[C@H]1C(=O)N[C@@H](CO)C(=O)O)[C@@H](C)CC` [WGIRDILKYGKPS], the MIC in test [10] is 30 µM (≈ 46 µg/mL); in test [11], 8 µM (≈ 12.3 µg/mL); in test [12], 15 µM (≈ 23 µg/mL); in test [13], 5 µM (≈ 7.66 µg/mL); in test [14] it was 15 µM (≈ 23 µg/mL).
Consider `CC[C@H](C)[C@H](NC(=O)CN)C(=O)N[C@@H](Cc1cnc[nH]1)C(=O)N[C@@H](CCCCN)C(=O)N[C@H](C(=O)N[C@@H](CC(C)C)C(=O)N[C@@H](CCCCN)C(=O)N[C@@H](Cc1ccc(O)cc1)C(=O)NCC(=O)N[C@@H](CCCCN)C(=O)N1CCC[C@H]1C(=O)N[C@@H](CO)C(N)=O)[C@@H](C)CC` [GIHKILKYGKPS], for which the MIC in [10] was found to be 5 µM (≈ 6.7 µg/mL); in test [11], 10 µM (≈ 13.4 µg/mL); in test [12], 10 µM (≈ 13.4 µg/mL); in test [13] it was 20 µM (≈ 26.8 µg/mL); in [14] it was 5 µM (≈ 6.7 µg/mL).
With `CC[C@H](C)[C@H](NC(=O)[C@H](CCCCN)NC(=O)[C@H](CCCCN)NC(=O)[C@H](CCCN=C(N)N)NC(=O)[C@H](CC(C)C)NC(=O)[C@H](CCCN=C(N)N)NC(=O)[C@H](CCCN=C(N)N)NC(=O)[C@H](CC(C)C)NC(=O)[C@H](CC(C)C)NC(=O)CN)C(=O)NCC(=O)N[C@@H](CCC(=O)O)C(=O)N[C@H](C(=O)N[C@@H](Cc1ccccc1)C(=O)N[C@@H](CCCCN)C(=O)N[C@@H](CCCCN)C(=O)N[C@@H](Cc1ccc(O)cc1)C(=O)NCC(=O)O)[C@@H](C)CC` [GLLRRLRKKIGEIFKKYG], the MIC against Bacillus megaterium Bm11 turned out to be 4 µM (≈ 8.7 µg/mL); in [11], 1 µM (≈ 2.18 µg/mL); in test [18], 4 µM (≈ 8.7 µg/mL); with Escherichia coli ML-35, 2 µM (≈ 4.35 µg/mL).
